Read-outs that look alike come from different tables or passages of the source.
Experiments:
[1] = test system: THP1 cells; assay: Combination drug screening, Cell Titer Glo, 10 × 10 matrix, THP1 cells; type: cell-based; conditions: THP1 cells; for Excess HSA Score: 10 × 10
[2] = test system: MOLM14(D835Y) cells; type: cell-based; conditions: MOLM14(D835Y) cells; for Excess HSA Score: 10 × 10
[3] = target: T1, IRAK4 (Homo sapiens, UniProt Q9NWZ3); assay: DiscoverX KINOMEscan competition binding, IRAK4; set-up: purchased RBC (Reaction Biology) HotSpot assay
T1 sequence (Q9NWZ3 1-460): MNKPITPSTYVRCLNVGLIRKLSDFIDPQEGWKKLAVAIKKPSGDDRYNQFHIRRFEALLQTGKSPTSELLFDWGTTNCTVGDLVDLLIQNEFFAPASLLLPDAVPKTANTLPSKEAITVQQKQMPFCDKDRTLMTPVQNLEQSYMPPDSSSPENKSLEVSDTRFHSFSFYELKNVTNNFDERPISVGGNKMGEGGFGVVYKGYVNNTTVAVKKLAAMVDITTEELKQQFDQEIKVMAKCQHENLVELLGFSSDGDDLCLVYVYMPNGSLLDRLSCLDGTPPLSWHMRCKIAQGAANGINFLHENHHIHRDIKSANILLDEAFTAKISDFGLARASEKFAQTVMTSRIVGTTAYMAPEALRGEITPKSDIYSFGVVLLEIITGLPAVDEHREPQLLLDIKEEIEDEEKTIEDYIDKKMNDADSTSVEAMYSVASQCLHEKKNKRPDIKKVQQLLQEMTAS

[4] = combination with (+)-BAY-1251152
[5] = combination with Eprenetapopt/APR-246
[6] = combination with Venetoclax (ABT-199)

`CC(O)(c1cn2c(-c3ccnc(N[C@H]4CNCC[C@@H]4F)n3)cnc2cn1)C(F)(F)F` (single isomer, unassigned) [Compound 72] was tested, and the “Excess HSA Score” value [1, 4] was −155.7, the “Excess HSA Score” value ([1]; combination with AMG-232) was 364 and the “Excess HSA Score” value ([1]; combination with AZD-5363) was −371.3. The “Excess HSA Score” value [1, 5] was 594.2926, the “Excess HSA Score” value ([1]; combination with Ivosidenib) was 175.5 and the “Excess HSA Score” value ([1]; combination with Lenalidomide) was 175.9. The “Excess HSA Score” value ([1]; combination with Palbociclib) was −319, the “Excess HSA Score” value ([1]; combination with Prednisolone) was 201.6 and the “Excess HSA Score” value ([1]; combination with SNDX-5613) was 342.4. The “Excess HSA Score” value ([1]; combination with TNO-155) was 908.1, the “Excess HSA Score” value ([1]; combination with Trametinib) was 354.3 and the “Excess HSA Score” value ([1]; combination with Ulixertinib) was 1146. The “Excess HSA Score” value [1, 6] was −1130, the Comments ([1]; combination with Ivosidenib) was “Antagonistic” and the Comments [1, 6] was “Synergistic”. For the same compound, the “Excess HSA Score” value [2, 4] was 179, the “Excess HSA Score” value ([2]; combination with AMG-232) was −165.4 and the “Excess HSA Score” value ([2]; combination with AZD-5363) was −687.9. For the same compound, the “Excess HSA Score” value [2, 5] was −80.14, the “Excess HSA Score” value ([2]; combination with Ivosidenib) was −168.3 and the “Excess HSA Score” value ([2]; combination with Lenalidomide) was 407.4. For the same compound, the “Excess HSA Score” value ([2]; combination with Palbociclib) was −390.1, the “Excess HSA Score” value ([2]; combination with Prednisolone) was 717.2 and the “Excess HSA Score” value ([2]; combination with SNDX-5613) was −77.23. For the same compound, the “Excess HSA Score” value ([2]; combination with TNO-155) was −797.6, the “Excess HSA Score” value ([2]; combination with Trametinib) was 218.5 and the “Excess HSA Score” value ([2]; combination with Ulixertinib) was 672.6. The “Excess HSA Score” value [2, 6] was −1396, the Comments [2, 4] was “Antagonistic” and the Comments [2, 6] was “Synergistic”. For the same compound, the Kd [3] was 0.38 nM.

`F[C@H]1CCNC[C@@H]1Nc1cncc(-c2cnc3cc(OC4CC4)ccn23)n1` [Compound 12, 6-(7-cyclopropoxyimidazo[1,2-a]pyridin-3-yl)-N-((3S,4S)-4-fluoropiperidin-3-yl)pyrazin-2-amine] was tested, and the “Excess HSA Score” value [1, 4] was −730.8, the “Excess HSA Score” value ([1]; combination with AMG-232) was −0.2304 and the “Excess HSA Score” value ([1]; combination with AZD-5363) was −798.3. For the same compound, the “Excess HSA Score” value [1, 5] was 477.7, the “Excess HSA Score” value ([1]; combination with Ivosidenib) was −53.98 and the “Excess HSA Score” value ([1]; combination with Lenalidomide) was −72.51. The “Excess HSA Score” value ([1]; combination with Palbociclib) was 575.5, the “Excess HSA Score” value ([1]; combination with Prednisolone) was −176.7 and the “Excess HSA Score” value ([1]; combination with SNDX-5613) was 75.74. The “Excess HSA Score” value ([1]; combination with TNO-155) was −498.7, the “Excess HSA Score” value ([1]; combination with Trametinib) was 300.014 and the “Excess HSA Score” value ([1]; combination with Ulixertinib) was −95.31. The “Excess HSA Score” value [1, 6] was −1564, the Comments ([1]; combination with AMG-232) was “Additive” and the Comments ([1]; combination with SNDX-5613) was “Antagonistic”. For the same compound, the Comments [1, 6] was “Synergistic”, the “Excess HSA Score” value [2, 4] was −346.5 and the “Excess HSA Score” value ([2]; combination with AMG-232) was −464.9. The “Excess HSA Score” value ([2]; combination with AZD-5363) was −869.6, the “Excess HSA Score” value [2, 5] was 381.9 and the “Excess HSA Score” value ([2]; combination with Ivosidenib) was −10.93. The “Excess HSA Score” value ([2]; combination with Lenalidomide) was 176.4, the “Excess HSA Score” value ([2]; combination with Palbociclib) was −72.57 and the “Excess HSA Score” value ([2]; combination with Prednisolone) was 908.8. The “Excess HSA Score” value ([2]; combination with SNDX-5613) was −187.4, the “Excess HSA Score” value ([2]; combination with TNO-155) was −906.9 and the “Excess HSA Score” value ([2]; combination with Trametinib) was −87.67. The “Excess HSA Score” value ([2]; combination with Ulixertinib) was 256.8, the “Excess HSA Score” value [2, 6] was −1232.2388 and the Comments ([2]; combination with Lenalidomide) was “Antagonistic”. For the same compound, the Comments [2, 6] was “Synergistic” and the Kd [3] was 0.81 nM.

Compound `COc1cc2ncc(-c3cncc(N[C@H]4CNC[C@@H]4F)n3)n2nc1C1CC1` [Compound 22, 6-(6-cyclopropyl-7-methoxyimidazo[1,2-b]pyridazin-3-yl)-N-((3S,4S)-4-fluoropyrrolidin-3-yl)pyrazin-2-amine] has a Kd [3] of 0.84 nM.
